Results as given in patent US4181657A, “2-Aminooctahydroindolo[2,3-a]quinolizines useful in treating cardiovascular disorders” (Miles Laboratories, Inc., priority 1978, dated 1980).
Where a name gives a salt, the structure may show the parent alone.

Columns and labels:
Format in all cases: in vivo
[1] = test system: dog heart in situ; assay: Antianginal activity: aortic-coronary sinus difference in oxygen (myocardial oxygen consumption) in anesthetized dogs; details: 1 mg/kg i.v.; for antianginal activity (conclusion in words): based upon comparison with nitroglycerin, named compounds 'particularly'
Description: Angina pectoris is a clinical condition of hypoxia that results from an imbalance in myocardial oxygen supply and demand. A drug reducing oxygen demand is useful in the treatment of angina pectoris, as has been the case with nitroglycerin and the beta-adrenergic blocking agents like propranolol (J. R. Paratt, Advan. Drug Res. 9:103-134, 1974). Accordingly,the antianginal activity of 2-substituted indoloquinolizines was evaluated by assessing their capacity to reduce oxygen consumption by the dog heart in situ. This method allows measurement of the difference in oxygen content of the arterial and venous blood.
Mongrel dogs were anesthetized with pentobarbital and cannulas inserted in the trachea and in a femoral vein for artificial respiration with room air and for injection of test compounds, respectively. Heparin was administered intravenously to prevent blood clotting. The chest was opened at the sternal midline and an additional cannula introduced in the coronary sinus. Samples of blood were obtained from the coronary sinus cannula and from the thoracic aorta by direct puncture of the vessel. Partial pressure of oxygen in the samples was determined with a blood gas analyzer. Test compounds were injected intravenously at a dose of 1 mg/kg; oxygen measurements were made before administration and at 1, 5, 10, 20, 30, 40, 50 and 60 min after administration. One animal was used per test compound. As the standard of comparison, nitroglycerin was administered to a test animal and measurements were made in a similar manner.
Differences between partial pressure values in arterial and venous blood samples were calculated for each measurement. Since coronary sinus blood is representative of the venous effluent from the heart, these differences reflect the consumption of oxygen by the myocardium. Thus, the decrease in arteriovenous oxygen difference produced by the compounds by this invention indicates a reduction in myocardial oxygen consumption.

[2] = test system: ventricular arrhythmia produced by chloroform; assay: Antiarrhythmic activity: protection from chloroform-induced ventricular arrhythmia in mice (Lawson model); details: mouse; for ED50: ip, 10 min, i.p., 10 min before chloroform, 95% confidence limits in parentheses, read-out: ED50 (95% C.L.); for mice protected of 5 / Antiarrhythmic activity, ED50 symbol (failed screening dose): 31 mg/kg i.p.; for Antiarrhythmic activity, ED50 symbol (failed screening dose): groups of 5 mice
Description: The antiarrhythmic activity of the compounds of this invention was determined in the experimental model described by J. W. Lawson (J. Pharmacol. Exper. Therap. 160:22-31, 1968). Test compounds were administered to groups of 5 mice at an intraperitoneal dose of 31 mg/kg. Ten minutes after injection each mouse was placed in a covered 300 ml glass beaker which contained cotton saturated with chloroform. The animal was observed closely and removed from the beaker immediately after respiratory arrest. The heart was quickly exposed by making an incision through the abdomen, diaphragm, thorax and pericardium for visual inspection of ventricular rate and rhythm. Ventricular contractions were counted for 30 seconds and animals with a rate not exceeding 100 beats per 30 seconds were considered protected from the ventricular arrhythmia produced by chloroform. Compounds protecting at least 3 of the 5 mice were subsequently tested at various doses and the results obtained were used to calculate the mean effective doses (ED50) and 95% confidence limits after the method of Litchfield and Wilcoxon (J. Pharmacol. Exper. Therap. 96:99-113, 1949). Table A presents the results obtained in the antiarrhythmic study.

[3] = test system: Systolic Blood Pressure; assay: Antihypertensive activity: indirect systolic blood pressure in renal hypertensive rats; details: rat, 31 mg/kg p.o., * in table = statistically significant change from control
Description: Rats were made hypertensive by applying a figure of eight ligature to one kidney and removing the contralateral kidney two weeks later. At least four weeks after the second operation the animals were subjected to indirect systolic blood pressure measurements with an occluding cuff and pulse sensor system applied to the tail. Pressure measurements were made before and 1,2,4,6 and 8 hours after oral administration of the test compounds at a dose of 31 mg/kg. Each compound was tested in 5 or 10 rats. Statistical significance of differences between control and post treatment values was determined by Wilcoxon's signed rank test (F. Wilcoxon and R. A. Wilcox, Some Rapid Approximate Statistical Procedures, Lederle Laboratories, Pearl River, 1964).

SMILES | Arterio-Venous Difference in Oxygen Partial Pressure at 1 min [1] [mmHg] | Arterio-Venous Difference in Oxygen Partial Pressure at 5 min [1] [mmHg] | Arterio-Venous Difference in Oxygen Partial Pressure at 10 min [1] [mmHg] | Arterio-Venous Difference in Oxygen Partial Pressure at 20 min [1] [mmHg] | Arterio-Venous Difference in Oxygen Partial Pressure at 30 min [1] [mmHg] | Arterio-Venous Difference in Oxygen Partial Pressure at 40 min [1] [mmHg] | Arterio-Venous Difference in Oxygen Partial Pressure at 50 min [1] [mmHg] | Arterio-Venous Difference in Oxygen Partial Pressure at 60 min [1] [mmHg] | antianginal activity (conclusion in words) [1] | ED50 [2] [mg/kg] | mice protected of 5 [2] | Change in Systolic Blood Pressure at 1 hr [3] | Change in Systolic Blood Pressure at 2 hr [3] | Change in Systolic Blood Pressure at 4 hr [3] | Change in Systolic Blood Pressure at 6 hr [3] | Change in Systolic Blood Pressure at 8 hr [3] | Antiarrhythmic activity, ED50 symbol (failed screening dose) [2]
CC(C)NC1CCN2CCc3c(n(Cc4ccccc4)c4ccccc34)C2C1.Cl.Cl.O (stereo not drawn) [TR3687, 12-benzyl-2-isopropylamino-1,2,3,4,6,7,12,12b-octahydroindolo[2,3-a]quinolizine dihydrochloride monohydrate] | 15 | 22 | 23 | 20 | 20 | 20 | 23 | 23 | antianginal activity is seen | 19 | at least 3 of 5 mice | -2 mmHg | +16 mmHg | +18 mmHg | +18 mmHg | +9 mmHg | 
NS(=O)(=O)c1ccc(NC2CCN3CCc4c(n(Cc5ccccc5)c5ccccc45)C3C2)cc1 (stereo not drawn) [TR3718, 12-benzyl-1,2,3,4,6,7,12,12b-octahydro-(4-sulfonamidoanilino)-indolo[2,3-a]quinolizine hydrochloride] | 20 | 17 | 17 | 16 | 16 | 16 | 18 | 18 |  |  |  | -5 mmHg | -16 mmHg | -21 mmHg | -5 mmHg | +5 mmHg | * (Did not protect 3 of 5 mice and thus was not tested further.)
Brc1cccc(NC2CCN3CCc4c(n(Cc5ccccc5)c5ccccc45)C3C2)c1.Cl (stereo not drawn) [TR3014, 12-benzyl-2-(3-bromoanilino)-1,2,3,4,6,7,12,12b-octahydroindolo[2,3-a]quinolizine hydrochloride] | 17 | 18 | 26 | 25 | 26 | 26 | 26 | 24 | antianginal activity is seen | 32 | at least 3 of 5 mice | +1 mmHg | -16 mmHg | -2 mmHg | 0 mmHg | -3 mmHg | 
Cc1cccc(NC2CCN3CCc4c(n(Cc5ccccc5)c5ccccc45)C3C2)c1.Cl.Cl (stereo not drawn) [TR3008, 12-benzyl-2-(3-methylanilino)-1,2,3,4,6,7,12,12b-octahydroindolo[2,3-a]quinolizine dihydrochloride] | 20 | 23 | 22 | 23 | 25 | 25 | 24 | 25 |  |  |  | -27 mmHg | -24 mmHg | -17 mmHg | -17 mmHg | -20 mmHg | * (Did not protect 3 of 5 mice and thus was not tested further.)
CC(=O)Nc1ccc(NC2CCN3CCc4c(n(Cc5ccccc5)c5ccccc45)C3C2)cc1.Cl.Cl (stereo not drawn) [TR3635, 2-(4-acetamidoanilino)-12-benzyl-1,2,3,4,6,7,12,12b-octahydroindolo-[2,3-a]quinolizine dihydrochloride] | 24 | 24 | 24 | 23 | 24 | 26 | 25 | 26 |  |  |  | -23 mmHg | -23 mmHg | -27 mmHg | -16 mmHg | -10 mmHg | * (Did not protect 3 of 5 mice and thus was not tested further.)
CC(=O)Nc1cccc(NC2CCN3CCc4c(n(Cc5ccccc5)c5ccccc45)C3C2)c1.O=C(O)C(=O)O (stereo not drawn) [TR3716, 2-(3-acetamidoanilino)-12-benzyl-1,2,3,4,6,7,12,12b-octahydroindolo[2,3-a]quinolizine oxalate] | 22 | 27 | 29 | 28 | 27 | 28 | 28 | 28 |  |  |  | -49 mmHg | -42 mmHg |  | -17 mmHg | -6 mmHg | * (Did not protect 3 of 5 mice and thus was not tested further.)
